Test results as given in the NIST ThermoML archive (doi:10.1016/j.fluid.2014.06.021).
Numbers after ± are expanded uncertainties.

Assay: activity coefficient (dimensionless); of the first substance listed, at infinite dilution; xn = mol fraction of the nth substance listed
Conditions: 101.33 kPa, Liquid, Chromatography, x1 = 0

Work on CCC(C)=O [butanone] + C[n+]1ccn(CCCCS(=O)(=O)O)c1.O=S(=O)([O-])O yielded an activity coefficient (323.15 K) of 5.49 ± 0.37, an activity coefficient (333.15 K) of 5.17 ± 0.35 and an activity coefficient (343.15 K) of 4.47 ± 0.3.
C1CCCCCC1 [cycloheptane] + C[n+]1ccn(CCCCS(=O)(=O)O)c1.O=S(=O)([N-]S(=O)(=O)C(F)(F)F)C(F)(F)F showed an activity coefficient (323.15 K) of 92.5 ± 6.4, an activity coefficient (333.15 K) of 144 ± 9.9 and an activity coefficient (343.15 K) of 180 ± 12.
Compound C1CCCCCC1 [cycloheptane] + C[n+]1ccn(CCCCS(=O)(=O)O)c1.O=S(=O)([O-])C(F)(F)F has an activity coefficient (323.15 K) of 225 ± 15, an activity coefficient (333.15 K) of 270 ± 19 and an activity coefficient (343.15 K) of 287 ± 20.
Compound CCCCCCCCCC [decane] + C[n+]1ccn(CCCCS(=O)(=O)O)c1.O=S(=O)([N-]S(=O)(=O)C(F)(F)F)C(F)(F)F has an activity coefficient (323.15 K) of 371 ± 26, an activity coefficient (333.15 K) of 336 ± 23 and an activity coefficient (343.15 K) of 281 ± 19.
In the case of ClCCl [dichloromethane] + C[n+]1ccn(CCCCS(=O)(=O)O)c1.O=S(=O)([N-]S(=O)(=O)C(F)(F)F)C(F)(F)F, the activity coefficient (323.15 K) is reported as 1.08 ± 0.07, the activity coefficient (333.15 K) is reported as 1.18 ± 0.08 and the activity coefficient (343.15 K) is reported as 1.28 ± 0.08.
ClCCl [dichloromethane] + C[n+]1ccn(CCCCS(=O)(=O)O)c1.O=S(=O)([O-])C(F)(F)F gave an activity coefficient (323.15 K) of 1.3 ± 0.08, an activity coefficient (333.15 K) of 1.46 ± 0.1 and an activity coefficient (343.15 K) of 1.61 ± 0.11.
In the case of ClCCl [dichloromethane] + C[n+]1ccn(CCCCS(=O)(=O)O)c1.O=S(=O)([O-])O, the activity coefficient (323.15 K) is reported as 3.5 ± 0.24, the activity coefficient (333.15 K) is reported as 3.48 ± 0.24 and the activity coefficient (343.15 K) is reported as 3.37 ± 0.23.
For CCOCC [diethyl ether] + C[n+]1ccn(CCCCS(=O)(=O)O)c1.O=S(=O)([N-]S(=O)(=O)C(F)(F)F)C(F)(F)F, the activity coefficient (323.15 K) was 0.4 ± 0.1, the activity coefficient (333.15 K) was 0.53 ± 0.04 and the activity coefficient (343.15 K) was 0.65 ± 0.04.
Work on CCOCC [diethyl ether] + C[n+]1ccn(CCCCS(=O)(=O)O)c1.O=S(=O)([O-])C(F)(F)F yielded an activity coefficient (323.15 K) of 4.51 ± 0.31, an activity coefficient (333.15 K) of 4.36 ± 0.3 and an activity coefficient (343.15 K) of 4.21 ± 0.29.
Work on CC(C)OC(C)C [diisopropyl ether] + C[n+]1ccn(CCCCS(=O)(=O)O)c1.O=S(=O)([O-])C(F)(F)F yielded an activity coefficient (323.15 K) of 11.7 ± 0.8, an activity coefficient (333.15 K) of 13.3 ± 0.91 and an activity coefficient (343.15 K) of 14.9 ± 1.
CCCCCCCCCCCC [dodecane] + C[n+]1ccn(CCCCS(=O)(=O)O)c1.O=S(=O)([N-]S(=O)(=O)C(F)(F)F)C(F)(F)F showed an activity coefficient (323.15 K) of 684 ± 47, an activity coefficient (333.15 K) of 588 ± 40 and an activity coefficient (343.15 K) of 557 ± 38.
Work on CCCCCCCCCCCC [dodecane] + C[n+]1ccn(CCCCS(=O)(=O)O)c1.O=S(=O)([O-])C(F)(F)F yielded an activity coefficient (323.15 K) of 1490 ± 100, an activity coefficient (333.15 K) of 1020 ± 70 and an activity coefficient (343.15 K) of 997 ± 69.
With CCCCCCCCCCCC [dodecane] + C[n+]1ccn(CCCCS(=O)(=O)O)c1.O=S(=O)([O-])O the activity coefficient (323.15 K) was 1310 ± 90, the activity coefficient (333.15 K) was 1200 ± 82 and the activity coefficient (343.15 K) was 1140 ± 79.
In the case of CCO [ethanol] + C[n+]1ccn(CCCCS(=O)(=O)O)c1.O=S(=O)([N-]S(=O)(=O)C(F)(F)F)C(F)(F)F, the activity coefficient (333.15 K) is reported as 0.08 ± 0.03 and the activity coefficient (343.15 K) is reported as 0.1.
In the case of CCc1ccccc1 [ethylbenzene] + C[n+]1ccn(CCCCS(=O)(=O)O)c1.O=S(=O)([N-]S(=O)(=O)C(F)(F)F)C(F)(F)F, the activity coefficient (323.15 K) is reported as 5.37 ± 0.37, the activity coefficient (333.15 K) is reported as 5.79 ± 0.39 and the activity coefficient (343.15 K) is reported as 5.8 ± 0.4.
For CCc1ccccc1 [ethylbenzene] + C[n+]1ccn(CCCCS(=O)(=O)O)c1.O=S(=O)([O-])C(F)(F)F, the activity coefficient (323.15 K) was 10.8 ± 0.74, the activity coefficient (333.15 K) was 10.3 ± 0.7 and the activity coefficient (343.15 K) was 10.3 ± 0.7.
In the case of CCc1ccccc1 [ethylbenzene] + C[n+]1ccn(CCCCS(=O)(=O)O)c1.O=S(=O)([O-])O, the activity coefficient (323.15 K) is reported as 62.7 ± 4.3, the activity coefficient (333.15 K) is reported as 57.6 ± 3.9 and the activity coefficient (343.15 K) is reported as 54.5 ± 3.7.
For CO [methanol] + C[n+]1ccn(CCCCS(=O)(=O)O)c1.O=S(=O)([N-]S(=O)(=O)C(F)(F)F)C(F)(F)F, the activity coefficient (323.15 K) was 0.06, the activity coefficient (333.15 K) was 0.08 ± 0.03 and the activity coefficient (343.15 K) was 0.09 ± 0.03.
C[N+](=O)[O-] [nitromethane] + C[n+]1ccn(CCCCS(=O)(=O)O)c1.O=S(=O)([N-]S(=O)(=O)C(F)(F)F)C(F)(F)F gave an activity coefficient (323.15 K) of 0.6 ± 0.1, an activity coefficient (333.15 K) of 0.6 ± 0.1 and an activity coefficient (343.15 K) of 0.6 ± 0.1.
With C[N+](=O)[O-] [nitromethane] + C[n+]1ccn(CCCCS(=O)(=O)O)c1.O=S(=O)([O-])C(F)(F)F the activity coefficient (323.15 K) was 0.72 ± 0.05, the activity coefficient (333.15 K) was 0.71 ± 0.05 and the activity coefficient (343.15 K) was 0.71 ± 0.05.
C[N+](=O)[O-] [nitromethane] + C[n+]1ccn(CCCCS(=O)(=O)O)c1.O=S(=O)([O-])O showed an activity coefficient (323.15 K) of 1.58 ± 0.1, an activity coefficient (333.15 K) of 1.59 ± 0.11 and an activity coefficient (343.15 K) of 1.6 ± 0.11.
CCCC(C)=O [pentan-2-one] + C[n+]1ccn(CCCCS(=O)(=O)O)c1.O=S(=O)([N-]S(=O)(=O)C(F)(F)F)C(F)(F)F showed an activity coefficient (323.15 K) of 0.42 ± 0.04, an activity coefficient (333.15 K) of 0.52 ± 0.04 and an activity coefficient (343.15 K) of 0.64 ± 0.04.
CCCC(C)=O [pentan-2-one] + C[n+]1ccn(CCCCS(=O)(=O)O)c1.O=S(=O)([O-])C(F)(F)F showed an activity coefficient (323.15 K) of 2.11 ± 0.14, an activity coefficient (333.15 K) of 2.14 ± 0.15 and an activity coefficient (343.15 K) of 2.19 ± 0.15.
